Results taken from patent publication EP1069898B1, “TOPICAL ANTISEPTIC COMPOSITIONS AND METHODS” (MARGOLIN, Solomon B., priority 1998, dated 1999).

Experiments:
[1] = system: Proteus vulgaris; test: Preliminary antimicrobial test, plate growth score; format: cell-based
[2] = system: Escherichia coli; test: Preliminary antimicrobial test, plate growth score; format: cell-based
[3] = system: Pseudomonas aeruginosa; test: Preliminary antimicrobial test, plate growth score; format: cell-based; design: key: 1=very slight; 2=slight; 3=slight to moderate; 4=moderate; 10=total plate growth (maximal growth)
[4] = system: Bacillus subtilis; test: Preliminary antimicrobial test, plate growth score; format: cell-based
[5] = system: Staphylococcus aureus; test: Preliminary antimicrobial test, plate growth score; format: cell-based
[6] = system: Candida albicans; test: Preliminary antimicrobial test, plate growth score; format: cell-based; design: key: 1=very slight; 2=slight; 3=slight to moderate; 4=moderate; 10=total plate growth (maximal growth)
[7] = system: Aspergillus niger; test: Preliminary antimicrobial test, plate growth score; format: cell-based
[8] = system: Trychophton mentagrophytes; test: Preliminary antimicrobial test, plate growth score; format: cell-based; design: key: 1=very slight; 2=slight; 3=slight to moderate; 4=moderate; 10=total plate growth (maximal growth)
[9] = Storage stability (chemical assays and physical characteristics); format: physicochemical; conditions: crystalline; 25 degrees Centigrade
Source text: A critical feature of the compositions of this invention is the chemical stability of the active ingredient(s), pirfenidone and/or related compounds. Crystalline pirfenidone is stable at room temperature (i.e., 25 degrees Centigrade) for more than five years. The formulations described above are stable for two years or longer at 25 degrees Centigrade (room temperature), based upon chemical assays and upon physical characteristics (color, plasticity, active ingredient dispersion and suspension).

[10] = Primary rabbit acute eye irritation test (Draize method); format: in vivo; conditions: 2.0% sterile aqueous solution, 0.1 ml. per eye; six albino rabbits; examined up to 10 days
Method: The eyes were carefully examined at 1.0 minutes, 30 minutes, and 3 hours after applying the solution, and then repeatedly examined for 10 days after the application of the pirfenidone solution (0.1 ml. per eye).
The eyes were carefully examined at 1, 3, 8, 24, and 48 hours and carefully re-examined daily for 10 days after the application of the ointment (100 milligrams per eye).

[11] = Pirfenidone concentration 5.0 wt.%
[12] = Pirfenidone concentration 10.0 wt.%

## Cc1ccc(=O)n(-c2ccccc2)c1 [Pirfenidone, 5-methyl-1-phenyl-2-(1H) pyridone]
[1]; [11]
  GROWTH SCORES (0 TO 10): 0
[1]; [12]
  GROWTH SCORES (0 TO 10): 0
[2]; [11]
  GROWTH SCORES (0 TO 10): 0
[2]; [12]
  GROWTH SCORES (0 TO 10): 0
[3]; Pirfenidone concentration 2.0 wt.%
  GROWTH SCORES (0 TO 10): 1
[3]; [11]
  GROWTH SCORES (0 TO 10): 0
[3]; [12]
  GROWTH SCORES (0 TO 10): 0
[4]; [11]
  GROWTH SCORES (0 TO 10): 0
[4]; [12]
  GROWTH SCORES (0 TO 10): 0
[5]; [11]
  GROWTH SCORES (0 TO 10): 0
[5]; [12]
  GROWTH SCORES (0 TO 10): 0
[6]; [11]
  GROWTH SCORES (0 TO 10): 2
[6]; [12]
  GROWTH SCORES (0 TO 10): 0
[7]; [11]
  GROWTH SCORES (0 TO 10): 0
[7]; [12]
  GROWTH SCORES (0 TO 10): 0
[8]; [11]
  GROWTH SCORES (0 TO 10): 2
[8]; [12]
  GROWTH SCORES (0 TO 10): 0
[9]
  stable at room temperature: more than five
[10]
  eye irritation (hyperemia, edema, eye discomfort, chemotaxis): failed to cause any irritation
